Results reported in article PMC9706563, “Development of Macrocyclic PRMT5–Adaptor Protein Interaction Inhibitors” (Journal of Medicinal Chemistry, 2022).
Where two headings read alike, the source gives them in different places. Square brackets hold non-standard residues; d marks the D form. Peptide text beside a SMILES is read from it. * marks the point of attachment. FITC = O=C1OC2(c3ccc(O)cc3Oc3cc(O)ccc32)c2ccc(NC(=S)*)cc21; Bpa = N[C@@H](Cc1ccc(C(=O)c2ccccc2)cc1)C(=O)O; Phe(2-Ph) = N[C@@H](Cc1ccccc1-c1ccccc1)C(=O)O; 1Nal = N[C@@H](Cc1cccc2ccccc12)C(=O)O; 2Nal = N[C@@H](Cc1ccc2ccccc2c1)C(=O)O; Gla = N[C@@H](CC(C(=O)O)C(=O)O)C(=O)O; hPhe = N[C@@H](CCc1ccccc1)C(=O)O; Cha = N[C@@H](CC1CCCCC1)C(=O)O; Nle = CCCC[C@H](N)C(=O)O; Nva = CCC[C@H](N)C(=O)O; Abu = CC[C@H](N)C(=O)O

Legend:
[1] = biological target: T1, PRMT5-MEP50 + pICln (Homo sapiens, UniProt O14744); assay: Competitive FP assay with Alexa 488-labeled full-length human pICln; assay type: binding
T1 construct: made in house
Procedure: To a solution of the full-length pICln protein (ca. 1 mg/mL) in 0.2 M bicarbonate buffer with 1 mM TCEP at pH 8.3 was added 10 mM Alexa […] in DMSO (8 equiv). The solution was kept on ice under dark conditions overnight. The protein was washed 8–10 times with a buffer intended for the fluorescence polarization assay (50 mM HEPES, 250 mM NaCl, 1 mM TCEP, 8.0 pH) using an Amicon Ultra-0.5 mL spin filter (Merck, Germany). Protein concentration was determined using the NanoDrop spectrophotometer.
The competitive binding assay was performed in a buffer of 50 mM HEPES, 250 mM NaCl, 1 mM TCEP, and 0.01% (v/v) Tween 20, 8.0 pH, in black, 384-well plates with a total volume of 10 μL per well. […] The plates were incubated at room temperature for up to 1 h 45 min and analyzed on a plate reader using 485 nm excitation and 535 nm emission wavelength. The experiment was performed in triplicate.

[2] = biological target: T2, PRMT5-MEP50 (Homo sapiens, UniProt O14744); assay: Competitive binding FP assay, FITC-labeled 50 as tracer; settings: from competitive FP with tracer 50
T2 construct: The compounds were tested by means of FP with the full-length PRMT5-MEP50 complex; made in house
Procedure: The competitive binding assay was performed in a buffer of 50 mM HEPES, 250 mM NaCl, 1 mM TCEP, and 0.01% (v/v) Tween 20, 8.0 pH, in black, 384-well plates with a total volume of 10 μL per well. The FITC-labeled peptides or the Alexa 488-labeled pICln protein, at a final concentration of 1 nM, were mixed with PRMT5-MEP50 (at a final concentration of 194 nM when used with peptide 50, 600 nM with compound S1 [see Table S3] and 21, and 27 nM in the case of Alexa 488-labeled pICln), and the appropriate nonlabeled peptide or protein was titrated as two-fold dilution series. The plates were incubated at room temperature for up to 1 h 45 min and analyzed on a plate reader using 485 nm excitation and 535 nm emission wavelength. The experiment was performed in triplicate.

[3] = biological target: T3, TIM-MEP50 complex (Homo sapiens, UniProt O14744); assay: Thermal shift assay (TSA); assay type: binding
T3 construct: made in house
Procedure: Thermal Shift Assays of peptides on the TIM-MEP50 complex were carried out in a 96-well PCR plate (LightCycler 480 Multiwell Plates 96, white, 04729692001). The purified protein complex was appropriately diluted in a buffer containing 50 mM HEPES (pH = 8.0), 250 mM NaCl, and 1 mM TCEP. All assay experiments used 5.36 μg of protein per well and […] 5000X Sypro Orange (Invitrogen) up to a total volume of 25 μL, with a resultant protein concentration of 3 μM and 5X SYPRO. Peptides were supplied at 10 mM concentration in DMSO. The PCR plates were sealed with an optical seal (LightCycler 480 Sealing Foil, 04729757001), shaken, and centrifuged after protein and compounds were added. Thermal scanning (25–95 °C at 1 °C/min) was performed using a real-time PCR setup (LightCycler 480 – Roche), and fluorescence intensity was measured after every temperature increment step. Analysis of the raw data was performed using internally developed software. Statistical validation of Tm shift relevance was performed using the Student’s t test (n = 6).

[4] = biological target: T2, PRMT5-MEP50; assay: Direct binding fluorescence polarization (FP) assay of FITC-labeled peptides; settings: supplementary CSV
Procedure: The assay was performed in a buffer of 50 mM 4-(2-hydroxyethyl)-1-piperazineethanesulfonic acid (HEPES), 250 mM NaCl, 1 mM tris(2-carboxyethyl)phosphine (TCEP), and 0.01% (v/v) Tween 20, pH 8.0, in black, 384-well plates with a total volume of 10 μL per well. […] The plates were incubated at room temperature for 1 to 2 h and analyzed on a plate reader using 485 nm excitation and 535 nm emission wavelength. The assay was performed in triplicate.

[5] = Stability assay in cell lysate; assay type: in vitro ADME
Procedure: To the whole cell lysate prepared from U2OS cells with the freeze–thaw method was added the appropriate peptide, resulting in a mixture of 0.5 mg/mL protein and 600 μM peptide in PBS, and incubated at 37 °C. The samples were taken at 0, 15, 30 min, 1, 2, 4 h, 1, 3, and 7-days time points and mixed with an equal volume of ice-cold ethylparaben solution in MeOH (0.1 mg/mL), used as the internal standard. The samples were kept on ice for 15 min and centrifuged at 16,873 × g at 4 °C for 5 min. The obtained supernatant was then analyzed by HPLC, the peptide and the internal standard peaks at 210 nm were integrated, and the ratio of the peptide peak surface area to the internal standard was calculated. The experiment was conducted in duplicate.

T2 sequence (O14744 whole entry): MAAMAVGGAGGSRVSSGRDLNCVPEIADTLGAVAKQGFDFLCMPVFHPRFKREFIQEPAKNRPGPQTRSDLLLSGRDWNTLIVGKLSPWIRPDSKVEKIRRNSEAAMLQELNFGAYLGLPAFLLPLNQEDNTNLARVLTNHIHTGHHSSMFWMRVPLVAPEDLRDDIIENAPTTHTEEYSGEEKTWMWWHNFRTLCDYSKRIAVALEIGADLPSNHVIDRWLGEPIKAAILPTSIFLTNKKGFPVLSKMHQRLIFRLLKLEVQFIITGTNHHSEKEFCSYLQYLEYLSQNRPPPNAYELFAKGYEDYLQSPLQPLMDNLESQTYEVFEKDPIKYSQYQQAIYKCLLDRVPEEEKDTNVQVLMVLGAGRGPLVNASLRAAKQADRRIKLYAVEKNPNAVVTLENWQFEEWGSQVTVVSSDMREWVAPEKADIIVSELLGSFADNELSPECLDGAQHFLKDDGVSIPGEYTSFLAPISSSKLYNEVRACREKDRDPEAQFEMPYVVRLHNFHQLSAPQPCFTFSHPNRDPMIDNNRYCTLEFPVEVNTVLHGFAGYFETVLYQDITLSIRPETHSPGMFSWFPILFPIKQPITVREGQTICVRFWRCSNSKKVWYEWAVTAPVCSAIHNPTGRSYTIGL
T2 sequence (Q9BQA1 whole entry partner): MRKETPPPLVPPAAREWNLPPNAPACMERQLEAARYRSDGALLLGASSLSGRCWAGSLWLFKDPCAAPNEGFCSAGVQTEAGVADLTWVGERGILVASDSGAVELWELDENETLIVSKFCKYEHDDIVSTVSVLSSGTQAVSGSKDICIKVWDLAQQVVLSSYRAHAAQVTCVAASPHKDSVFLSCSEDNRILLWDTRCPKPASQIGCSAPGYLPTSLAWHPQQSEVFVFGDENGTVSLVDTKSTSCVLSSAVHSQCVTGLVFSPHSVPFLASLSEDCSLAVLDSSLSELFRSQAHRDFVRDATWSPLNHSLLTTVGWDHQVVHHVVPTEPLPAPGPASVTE
T1 sequence (O14744 whole entry): as the sequence (O14744 whole entry) above
T1 sequence (Q9BQA1 whole entry partner): as the sequence (Q9BQA1 whole entry partner) above
T3 sequence (O14744 13-292 limits assumed): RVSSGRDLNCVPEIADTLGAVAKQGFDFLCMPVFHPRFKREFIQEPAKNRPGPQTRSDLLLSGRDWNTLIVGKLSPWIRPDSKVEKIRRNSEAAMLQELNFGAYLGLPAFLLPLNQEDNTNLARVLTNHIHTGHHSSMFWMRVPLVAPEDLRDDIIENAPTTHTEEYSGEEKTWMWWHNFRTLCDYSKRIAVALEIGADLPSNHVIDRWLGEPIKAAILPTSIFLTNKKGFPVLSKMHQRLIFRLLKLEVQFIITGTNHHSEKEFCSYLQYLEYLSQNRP
T3 sequence (Q9BQA1 whole entry partner): as the sequence (Q9BQA1 whole entry partner) above

Row | Compound | Kd ([4]; read-out: PRMT5-MEP50 Kd) [µM] | also measured
1 | CC(=O)N1CCC[C@H]1C(=O)N[C@H](C(=O)N[C@@H]1CCCCC[C@@H](C(=O)N[C@@H](Cc2ccc([N+](=O)[O-])cc2)C(=O)N[C@@H](CC(C(=O)O)C(=O)O)C(=O)N[C@@H](CCC(N)=O)C(N)=O)NC(=O)[C@H](CC(=O)O)NC(=O)[C@H](C)NC1=O)C(C)C [Compound 54] | – | IC50 ([1]; competition with Alexa 488-labeled pICln, 27 nM PRMT5-MEP50): did not compete; PRMT5-MEP50 + pICln IC50 (µM) ([1]; competition with labeled pICln, supplementary CSV): nb; Ki [2]: n.b.; PRMT5-MEP50 Ki (µM) ([2]; supplementary CSV): nb; increase of the average melting temperature ([3]; TSA, PRMT5 TIM barrel-MEP50 complex, n = 6): No stabilization; TSA Average Tm (°C) ([3]; supplementary CSV): 49.32 ± 0.18 °C
2 | CC(=O)N[C@H](C(=O)N1CCC[C@H]1C(=O)NCC(=O)N[C@@H](CCC(N)=O)C(=O)N[C@@H](Cc1ccccc1-c1ccccc1)C(=O)N[C@@H](CC(=O)O)C(=O)N[C@@H](CC(=O)O)C(=O)N[C@@H](C)C(=O)N[C@@H](CC(=O)O)C(=O)N[C@@H](CCCCNC(=S)Nc1ccc2c(c1)C(=O)OC21c2ccc(O)cc2Oc2cc(O)ccc21)C(N)=O)C(C)C [Compound S22] (Ac-VPGQ[Phe(2-Ph)]DDADK(FITC)-NH2) | > 1 | –
3 | CC(=O)N[C@H](C(=O)N1CCC[C@H]1C(=O)NCC(=O)N[C@@H](CCC(N)=O)C(=O)N[C@@H](Cc1ccc(C(=O)c2ccccc2)cc1)C(=O)N[C@@H](CC(=O)O)C(=O)N[C@@H](CC(=O)O)C(=O)N[C@@H](C)C(=O)N[C@@H](CC(=O)O)C(=O)N[C@@H](CCCCNC(=S)Nc1ccc2c(c1)C(=O)OC21c2ccc(O)cc2Oc2cc(O)ccc21)C(N)=O)C(C)C [Compound S23] (Ac-VPGQ[Bpa]DDADK(FITC)-NH2) | – | Kd ([4]; PRMT5-MEP50 Kd (µM)): 0.752 ± 0.044 µM
4 | CC(=O)N[C@H](C(=O)N1CCC[C@H]1C(=O)NCC(=O)N[C@@H](CCC(N)=O)C(=O)N[C@@H](Cc1ccc2ccccc2c1)C(=O)N[C@@H](CC(=O)O)C(=O)N[C@@H](CC(=O)O)C(=O)N[C@@H](C)C(=O)N[C@@H](CC(=O)O)C(=O)N[C@@H](CCCCNC(=S)Nc1ccc2c(c1)C(=O)OC21c2ccc(O)cc2Oc2cc(O)ccc21)C(N)=O)C(C)C [Compound S24] (Ac-VPGQ[2Nal]DDADK(FITC)-NH2) | > 1 | –
5 | CC(=O)N[C@H](C(=O)N1CCC[C@H]1C(=O)NCC(=O)N[C@@H](CCC(N)=O)C(=O)N[C@@H](Cc1cccc2ccccc12)C(=O)N[C@@H](CC(=O)O)C(=O)N[C@@H](CC(=O)O)C(=O)N[C@@H](C)C(=O)N[C@@H](CC(=O)O)C(=O)N[C@@H](CCCCNC(=S)Nc1ccc2c(c1)C(=O)OC21c2ccc(O)cc2Oc2cc(O)ccc21)C(N)=O)C(C)C [Compound S25] (Ac-VPGQ[1Nal]DDADK(FITC)-NH2) | > 1 | –
6 | CC(=O)N[C@H](C(=O)N1CCC[C@H]1C(=O)NCC(=O)N[C@@H](CCC(N)=O)C(=O)N[C@@H](Cc1ccccc1)C(=O)N[C@@H](CC(=O)O)C(=O)N[C@@H](CC(C(=O)O)C(=O)O)C(=O)N[C@@H](C)C(=O)N[C@@H](CC(=O)O)C(=O)N[C@@H](CCCCNC(=S)Nc1ccc2c(c1)C(=O)OC21c2ccc(O)cc2Oc2cc(O)ccc21)C(N)=O)C(C)C [Compound S26] (Ac-VPGQFD[Gla]ADK(FITC)-NH2) | > 1 | –
7 | CC[C@H](NC(=O)[C@H](CC(=O)O)NC(=O)[C@H](CC(=O)O)NC(=O)[C@H](Cc1ccccc1)NC(=O)[C@H](CCC(N)=O)NC(=O)CNC(=O)[C@@H]1CCCN1C(=O)[C@@H](NC(C)=O)C(C)C)C(=O)N[C@@H](CC(=O)O)C(=O)N[C@@H](CCCCNC(=S)Nc1ccc2c(c1)C(=O)OC21c2ccc(O)cc2Oc2cc(O)ccc21)C(N)=O [Compound S27] (Ac-VPGQFDD[Abu]DK(FITC)-NH2) | > 1 | –
8 | CCC[C@H](NC(=O)[C@H](CC(=O)O)NC(=O)[C@H](CC(=O)O)NC(=O)[C@H](Cc1ccccc1)NC(=O)[C@H](CCC(N)=O)NC(=O)CNC(=O)[C@@H]1CCCN1C(=O)[C@@H](NC(C)=O)C(C)C)C(=O)N[C@@H](CC(=O)O)C(=O)N[C@@H](CCCCNC(=S)Nc1ccc2c(c1)C(=O)OC21c2ccc(O)cc2Oc2cc(O)ccc21)C(N)=O [Compound S28] (Ac-VPGQFDD[Nva]DK(FITC)-NH2) | > 1 | –
9 | CCCC[C@H](NC(=O)[C@H](CC(=O)O)NC(=O)[C@H](CC(=O)O)NC(=O)[C@H](Cc1ccccc1)NC(=O)[C@H](CCC(N)=O)NC(=O)CNC(=O)[C@@H]1CCCN1C(=O)[C@@H](NC(C)=O)C(C)C)C(=O)N[C@@H](CC(=O)O)C(=O)N[C@@H](CCCCNC(=S)Nc1ccc2c(c1)C(=O)OC21c2ccc(O)cc2Oc2cc(O)ccc21)C(N)=O [Compound S29] (Ac-VPGQFDD[Nle]DK(FITC)-NH2) | > 1 | –
10 | CC(=O)N[C@H](C(=O)N1CCC[C@H]1C(=O)NCC(=O)N[C@@H](CCC(N)=O)C(=O)N[C@@H](Cc1ccccc1)C(=O)N[C@@H](CC(=O)O)C(=O)N[C@@H](CC(=O)O)C(=O)N[C@@H](CC1CCCCC1)C(=O)N[C@@H](CC(=O)O)C(=O)N[C@@H](CCCCNC(=S)Nc1ccc2c(c1)C(=O)OC21c2ccc(O)cc2Oc2cc(O)ccc21)C(N)=O)C(C)C [Compound S30] (Ac-VPGQFDD[Cha]DK(FITC)-NH2) | > 1 | –
11 | CC(=O)N[C@H](C(=O)N1CCC[C@H]1C(=O)NCC(=O)N[C@@H](CCC(N)=O)C(=O)N[C@@H](Cc1ccccc1)C(=O)N[C@@H](CC(=O)O)C(=O)N[C@@H](CC(=O)O)C(=O)N[C@@H](CO)C(=O)N[C@@H](CC(=O)O)C(=O)N[C@@H](CCCCNC(=S)Nc1ccc2c(c1)C(=O)OC21c2ccc(O)cc2Oc2cc(O)ccc21)C(N)=O)C(C)C [Compound S31] (Ac-VPGQFDDSDK(FITC)-NH2) | > 1 | –
12 | CC(=O)N[C@H](C(=O)N1CCC[C@H]1C(=O)NCC(=O)N[C@@H](CCC(N)=O)C(=O)N[C@@H](Cc1ccccc1)C(=O)N[C@@H](CC(=O)O)C(=O)N[C@@H](CC(=O)O)C(=O)N[C@@H](C)C(=O)N[C@@H](Cc1ccc(O)cc1)C(=O)N[C@@H](CCCCNC(=S)Nc1ccc2c(c1)C(=O)OC21c2ccc(O)cc2Oc2cc(O)ccc21)C(N)=O)C(C)C [Compound S32] (Ac-VPGQFDDAYK(FITC)-NH2) | > 1 | –
13 | CC(=O)N[C@H](C(=O)N1CCC[C@H]1C(=O)NCC(=O)N[C@@H](CCC(N)=O)C(=O)N[C@@H](Cc1ccccc1)C(=O)N[C@@H](CC(=O)O)C(=O)N[C@@H](CC(=O)O)C(=O)N[C@@H](C)C(=O)N[C@@H](Cc1c[nH]c2ccccc12)C(=O)N[C@@H](CCCCNC(=S)Nc1ccc2c(c1)C(=O)OC21c2ccc(O)cc2Oc2cc(O)ccc21)C(N)=O)C(C)C [Compound S33] (Ac-VPGQFDDAWK(FITC)-NH2) | > 1 | –
14 | CC(=O)N[C@H](C(=O)N1CCC[C@H]1C(=O)NCC(=O)N[C@@H](CCC(N)=O)C(=O)N[C@@H](Cc1ccccc1)C(=O)N[C@@H](CC(=O)O)C(=O)N[C@@H](CC(=O)O)C(=O)N[C@@H](C)C(=O)N[C@@H](CCc1ccccc1)C(=O)N[C@@H](CCCCNC(=S)Nc1ccc2c(c1)C(=O)OC21c2ccc(O)cc2Oc2cc(O)ccc21)C(N)=O)C(C)C [Compound S34] (Ac-VPGQFDDA[hPhe]K(FITC)-NH2) | > 1 | –
15 | Ac-VPGQFDDAD-NH2 [Compound 31] | – | half-life ([5]; U2OS cell lysate, 37 °C, 600 μM peptide): 4.4 h; half-life ([5]; cells or culture medium, supplementary CSV, read-out: Half-llife in Lysate (converted)): 4.32 h
